Read-outs that look alike come from different tables or passages of the source.
Biological target: CB1 (mutant) (Homo sapiens, UniProt P21554)
Assay: R-SAT functional receptor assay, CB1 (mutant, truncated after amino acid 417)
Format: cell-based
Conditions: R-SAT CB1; for Emax / % Inhibition: receptor form not stated, relative to SR141716 (100%); for Emax: read-out: % Inhibition
[1] = Appendix A, receptor form (mutant or wild-type) not stated, read-out: pIC50 (converted)
[2] = pIC50, Appendix A, receptor form (mutant or wild-type) not stated

Sequence of CB1 (mutant) (P21554 1-417, change not shown): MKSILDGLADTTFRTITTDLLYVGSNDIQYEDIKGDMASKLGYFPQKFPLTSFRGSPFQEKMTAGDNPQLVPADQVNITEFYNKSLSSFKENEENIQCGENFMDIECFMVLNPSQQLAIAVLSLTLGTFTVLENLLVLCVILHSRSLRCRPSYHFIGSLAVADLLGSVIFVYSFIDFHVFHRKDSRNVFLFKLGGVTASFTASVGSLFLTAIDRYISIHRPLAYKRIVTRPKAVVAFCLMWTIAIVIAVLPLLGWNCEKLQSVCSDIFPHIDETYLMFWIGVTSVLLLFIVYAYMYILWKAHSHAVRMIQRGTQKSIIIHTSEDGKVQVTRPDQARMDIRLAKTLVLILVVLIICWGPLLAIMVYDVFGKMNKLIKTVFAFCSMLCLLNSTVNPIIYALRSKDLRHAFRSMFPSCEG

Row | SMILES | IC50 [1] | Emax (Appendix A) | % Inhibition (Appendix A) | IC50 [2] | pIC50 (Appendix A, receptor form (mutant or wild-type) not stated)
1 | COCCNC(=O)c1ccc2c(c1)N=C(c1sccc1C)c1ccccc1S2 | 63.1 nM | 88% |  |  | 
2 | Cc1ccc(CNC(=O)c2ccc3c(c2)N=C(c2sccc2C)c2ccccc2S3)o1 [drawing 953] | 20 nM | 79% |  |  | 
3 | O=C(c1ccc2c(c1)N=C(c1ccccc1F)c1ccccc1S2)N1CCCCC1 | 79.4 nM | 73% |  |  | 
4 | O=C(NCCc1cccc(Cl)c1)c1ccc2c(c1)N=C(c1ccccc1F)c1ccccc1S2 [drawing 736] | 79.4 nM | 91% |  |  | 
5 | CCONC(=O)c1ccc2c(c1)N=C(c1ccc(Cl)cc1Cl)c1ccccc1S2 | 3160 nM | 37% |  |  | 
6 | CCCC1=NC2=C(CCC(C(=O)NCCc3ccc(OCC)cc3)=C2)Sc2ccccc21 | 158 nM | 102% |  |  | 
7 | CCCNC(=O)c1ccc2c(c1)N=C(c1ccc(Br)cc1)c1ccccc1S2 [drawing 1055] | 31.6 nM | 92% |  |  | 
8 | O=C(NC1CCCCC1)c1ccc2c(c1)N=C(c1ccc(Cl)cc1)c1ccccc1S2 [drawing 844] | 158 nM |  | 97% |  | 
9 | CCCCN(CCCNC(=O)c1ccc2c(c1)N=C(CCC)c1ccccc1S2)Cc1ccccc1 | 100 nM | 99% |  |  | 
10 | CCCC1=Nc2cc(C(=O)NC(C)c3ccccc3)ccc2Sc2ccccc21 (stereo not drawn) | 63.1 nM | 97% |  |  | 
11 | O=C(NCc1cccs1)c1ccc2c(c1)N=C(c1ccccc1Cl)c1ccccc1S2 | 200 nM | 87% |  |  | 
12 | O=C(NCCc1cccc(Cl)c1)c1ccc2c(c1)N=C(c1ccc(F)cc1)c1ccccc1S2 [drawing 919] | 15.8 nM | 98% |  |  | 
13 | O=C(NNCC(F)(F)F)c1ccc2c(c1)N=C(c1ccc(Cl)cc1)c1ccccc1S2 [drawing 816] |  | 81% |  |  | 
14 | O=C(NCc1ccc(F)cc1)c1ccc2c(c1)N=C(N1CCCCC1)c1ccccc1S2 [drawing 611] | 3.98 nM | 80% |  |  | 
15 | O=C(NC1CCCCC1)c1ccc2c(c1)N=C(c1cccc(Cl)c1)c1ccccc1S2 [drawing 843] | 12.6 nM | 99% |  |  | 
16 | O=C(NCc1ccncc1)c1ccc2c(c1)N=C(c1ccc(F)cc1)c1ccccc1S2 [drawing 716] | 79.4 nM | 101% |  |  | 
17 | O=C(Cc1ccccc1)NNC(=O)c1ccc2c(c1)N=C(c1ccc(F)cc1)c1ccccc1S2 [drawing 840] | 158 nM | 98% |  |  | 
18 | CCCC1=Nc2cc(C(=O)NCC(OCC)OCC)ccc2Sc2ccccc21 | 39.8 nM | 107% |  |  | 
19 | CCCC1=Nc2cc(C(=O)NCCCN3CCOCC3)ccc2Sc2ccccc21 | 316 nM | 98% |  |  | 
20 | CCCCNC(=O)c1ccc2c(c1)N=C(c1ccc(Cl)s1)c1cc(F)ccc1S2 [drawing 873] | 15.8 nM | 99% |  |  | 
21 | CC(C)CNC(=O)c1ccc2c(c1)N=C(c1ccc(Cl)cc1Cl)c1ccccc1S2 | 79.4 nM | 87% |  |  | 
22 | N#Cc1ccc(C2=Nc3cc(C(=O)NCc4ccccn4)ccc3Sc3ccccc32)cc1 | 79.4 nM | 99% |  |  | 
23 | CCCCNC(=O)c1ccc2c(c1)N=C(c1ccc(Cl)cn1)c1ccc(F)cc1S2 [drawing 632] | 63.1 nM | 95% |  |  | 
24 | O=C(NN1CCCCC1)c1ccc2c(c1)N=C(c1ccccc1)c1ccccc1O2 | 158 nM | 57% |  |  | 

Row | SMILES | IC50 [1] | Emax (Appendix A) | % Inhibition (Appendix A) | IC50 [2] | pIC50 (Appendix A, receptor form (mutant or wild-type) not stated)
25 | CCOC(=O)c1ccc(C2=Nc3cc(C(=O)NNC(=O)Cc4ccccc4)ccc3Sc3ccccc32)cc1 | 3160 nM | 61% |  |  | 
26 | Cc1ccsc1C1=Nc2cc(C(=O)NC3CCCCC3)ccc2Sc2ccccc21 [drawing 572] | 50.1 nM | 88% |  |  | 
27 | O=C(NCc1ccccc1Cl)c1ccc2c(c1)N=C(N1CCCCC1)c1ccccc1S2 [drawing 1013] | 25.1 nM | 117% |  |  | 
28 | COCCNC(=O)c1ccc2c(c1)N=C(c1cccc(Cl)c1)c1ccccc1S2 [drawing 849] | 12.6 nM | 110% |  |  | 
29 | CCOCCNC(=O)c1ccc2c(c1)N=C(c1ccc(C(=O)OCC)cc1)c1ccccc1S2 | 158 nM | 77% |  |  | 
30 | O=C(NCCc1cccnc1)c1ccc2c(c1)N=C(c1ccccn1)c1ccccc1S2 | 316 nM | 77% |  |  | 
31 | O=C(NCc1ccco1)c1ccc2c(c1)N=C(c1ccccn1)c1ccccc1S2 | 31.6 nM | 102% |  |  | 
32 | CCCNC1=Nc2cc(C(=O)NN3CCCCC3)ccc2Sc2ccccc21 | 1580 nM | 89% |  |  | 
33 | CCN(CCNC(=O)c1ccc2c(c1)N=C(c1ccc(F)cc1)c1ccccc1S2)c1ccccc1 [drawing 773] | 10 nM | 99% |  |  | 
34 | O=C(NN1CCCCC1)c1ccc2c(c1)N=C(c1ccc(Cl)cc1)c1ccccc1S2 [drawing 863] |  |  | 103% |  | 
35 | O=C(NCc1ccncc1)c1ccc2c(c1)N=C(c1ccccc1Cl)c1ccccc1S2 | 794 nM | 67% |  |  | 
36 | CCCCNC(=O)c1ccc2c(c1)N=C(c1ccc(Cl)cn1)c1cc(F)ccc1S2 [drawing 560] | 50.1 nM | 100% |  |  | 
37 | CCCCN(C)C(=O)c1ccc2c(c1)N=C(c1cccc(Cl)c1)c1ccccc1S2 |  | 82% |  | 79.4 nM | 
38 | CC(C)CCNC(=O)c1ccc2c(c1)N=C(c1ccccn1)c1ccccc1S2 [drawing 967] | 20 nM |  |  |  | 
39 | O=C(NCCc1ccccc1)c1ccc2c(c1)N=C(c1cccc(Cl)c1)c1ccccc1S2 [drawing 731] |  | 104% |  | 7.94 nM | 
40 | O=C(c1ccc2c(c1)N=C(c1ccc(Cl)cc1)c1ccccc1S2)N1CCCCC1 |  | 95% |  | 31.6 nM | 
41 | CONC(=O)c1ccc2c(c1)N=C(c1ccc(C#N)cc1)c1ccccc1S2 |  | 36% |  |  | 1.0
42 | CC(C)CNC(=O)c1ccc2c(c1)N=C(c1ccc(F)cn1)c1ccccc1S2 [drawing 711] | 7.94 nM | 113% |  |  | 
43 | CCOCCNC(=O)c1ccc2c(c1)N=C(NCc1ccc(Cl)cc1)c1ccccc1S2 |  | 1% |  |  | 
44 | CCCC1=Nc2cc(C(=O)NCC(C)c3ccccc3)ccc2Sc2ccccc21 (stereo not drawn) [drawing 735] | 7.94 nM | 104% |  |  | 
45 | CCCC1=Nc2cc(C(=O)N3CCN(C(=O)OCC)CC3)ccc2Sc2ccccc21 | 1000 nM | 77% |  |  | 
46 | CCCCC1=Nc2cc(C(=O)N3CCN(c4ccc(C)cc4C)CC3)ccc2Sc2ccccc21 | 316 nM | 104% |  |  | 
47 | NS(=O)(=O)c1ccc(CNC(=O)c2ccc3c(c2)N=C(c2ccc(Cl)cc2)c2ccccc2S3)cc1 [drawing 746] | 79.4 nM | 76% |  |  | 
48 | O=C(NCCc1cccnc1)c1ccc2c(c1)N=C(c1ccc(F)cc1)c1ccccc1S2 [drawing 1033] | 25.1 nM | 119% |  |  | 

Row | SMILES | IC50 [1] | Emax (Appendix A) | % Inhibition (Appendix A) | IC50 [2] | pIC50 (Appendix A, receptor form (mutant or wild-type) not stated)
49 | CONC(=O)c1ccc2c(c1)N=C(c1cccc(Br)c1)c1ccccc1S2 | 501 nM | 73% |  |  | 
50 | CCCC1=Nc2cc(C(=O)NC3CCC(C)CC3)ccc2Sc2ccccc21 (stereo not drawn) [drawing 975] |  | 114% |  | 20 nM | 
51 | COc1ccc(C2=Nc3cc(C(=O)NCc4ccc(S(N)(=O)=O)cc4)ccc3Sc3ccccc32)cc1 | 158 nM | 84% |  |  | 
52 | O=C(NN1CCCCC1)c1ccc2c(c1)NC(C1CCCCC1)c1ccccc1S2 (stereo not drawn) | 501 nM | 43% |  |  | 
53 | O=C(NCc1ccccn1)c1ccc2c(c1)N=C(c1ccc(Cl)cc1)c1ccccc1S2 [drawing 1157] | 39.8 nM | 125% |  |  | 
54 | O=C(NCc1ccncc1)c1ccc2c(c1)N=C(c1ccc(Cl)cc1)c1ccccc1S2 [drawing 696] | 79.4 nM | 105% |  |  | 
55 | COc1cccc(C2=Nc3cc(C(=O)NCCC(F)(F)F)ccc3Sc3ccccc32)n1 [drawing 707] | 7.94 nM | 104% |  |  | 
56 | O=C(NNCC(F)(F)F)c1ccc2c(c1)N=C(c1cccc(Cl)c1)c1ccccc1S2 [drawing 678] | 63.1 nM | 99% |  |  | 
57 | O=C(NCCCC(F)(F)F)c1ccc2c(c1)N=C(c1ccc(Cl)cc1)c1ccccc1S2 [drawing 601] | 3.98 nM | 105% |  |  | 
58 | Cc1csc(CNC(=O)c2ccc3c(c2)N=C(c2ccsc2)c2ccccc2S3)c1 [drawing 563] | 2.51 nM | 93% |  |  | 
59 | O=C(NCc1ccc(F)cc1)c1ccc2c(c1)N=C(C1CCCCC1)c1ccccc1S2(=O)=O [drawing 917] | 15.8 nM | 120% |  |  | 
60 | CC(C)CNC(=O)c1ccc2c(c1)N=C(c1ccc(Cl)cc1)c1ccc(Cl)cc1S2 [drawing 1113] | 39.8 nM | 106% |  |  | 
61 | Cc1cccc(C2=Nc3cc(C(=O)NCCC(F)(F)F)ccc3Sc3ccccc32)n1 [drawing 815] | 12.6 nM | 93% |  |  | 
62 | O=C(NCc1ccc(F)cc1)c1ccc2c(c1)N=C(c1ccc(Cl)cc1)c1ccccc1S2 [drawing 589] | 3.16 nM | 106% |  |  | 
63 | O=C(NCc1cccc(Cl)c1)c1ccc2c(c1)N=C(N1CCCCC1)c1ccccc1[S+]2[O-] (stereo not drawn) [drawing 758] | 100 nM | 71% |  |  | 
64 | CCCCNC(=O)c1ccc2c(c1)N=C(c1ccccc1Cl)c1ccccc1S2 |  | 89% |  |  | 
65 | O=C(NN1CCCCCC1)c1ccc2c(c1)N=C(c1ccccc1F)c1ccccc1S2 [drawing 578] | 50.1 nM | 87% |  |  | 
66 | Cc1ccsc1C1=Nc2cc(C(=O)NC3CCCC3)ccc2Sc2ccccc21 [drawing 652] | 63.1 nM | 81% |  |  | 
67 | CC(NC(=O)c1ccc2c(c1)N=C(c1ccc(F)cc1)c1ccccc1S2)c1ccccc1 (stereo not drawn) [drawing 760] | 100 nM | 81% |  |  | 
68 | COc1ccc(C2=Nc3cc(C(=O)NNC(=O)c4ccccc4)ccc3Sc3ccccc32)cc1 [drawing 798] |  | 83% |  |  | 
69 | O=C(NCc1ccc(F)cc1)c1ccc2c(c1)N=C(c1ccc(Cl)cc1)c1ccccc1[S+]2[O-] (stereo not drawn) [drawing 1125] | 39.8 nM | 98% |  |  | 
70 | CC(C)NC(=O)c1ccc2c(c1)N=C(c1ccccc1Cl)c1ccccc1S2 | 631 nM | 46% |  |  | 
71 | CCCC1=Nc2cc(C(=O)NCCCN3CCN(c4ccccc4F)CC3)ccc2Sc2ccccc21 | 398 nM | 120% |  |  | 
72 | COc1ccccc1C1=Nc2cc(C(=O)NC3CCCCC3)ccc2Sc2ccccc21 | 316 nM | 72% |  |  | 
